{
  "source": "patent US9464121B2",
  "about": "“Compositions and methods for treating erectile dysfunction” (priority 2007, dated 2016)",
  "key": {"C2C12 myoblasts": {"tested_on": "C2C12 myoblasts", "assay": "Intracellular calcium determination with Fluo-3AM (confocal microscopy)", "format": "cell-based", "description": "To confirm that the f40/7841 polypeptide had no effect on calcium flux, C2C12 myoblasts were treated with f40/7841 polypeptide and intracellular calcium levels were assayed using the calcium-sensitive fluorchrome, Fluo-3AM. For the intracellular Ca^2+ measurements, a Confocal LSM 510 Meta Confocal (Zeiss, Jena, Alemania) microscope with a lasing line excitation of 488 nm was used. C2C12 cells were seeded in 60 mm culture dishes (Nalge Nunc International, Rochester, N.Y.) and cultured for 48 hours at which time each plate contained about 250,000 cells. The cells were loaded with fluorochrome in concentration of 4 μM fluo-3AM (Sigma) in 0.5% Me2SO and 0.1% of pluronic acid F-127 for 30 minutes at 37° C.; washed three times with a modified Dulbecco's solution with 10% of fetal bovine serum and returned to the incubator.\nThe fluorescence of Fluo-3AM was stimulated at 488 nm and measured at 515 nm using a bandpass filter. The intracellular Ca^2+ was measured for 10 seconds, followed by the addition of 1 μM f40/7841 polypeptide and 1.5 mM of carbachol. The Ca^2+ changes were monitored for 2 minutes and the images were taken every 1.5 sec. The calcium ionophore 4-Br-A23187 (5 μM) followed by 10 mM EGTA were then added to obtain the maximum calcium excitation (Fmax) and the minimum fluorescence (Fmin), respectively. The intracellular [Ca^2+] of fluorescence (F) obtained by the used f40/7841 was calculated in the following way: intracellular [Ca^2+]=Kd*(*F−F*min)/(*F*max−*F*), assuming 450 nM. *Kd* for the fluo-3AM, the concentrations were calculated in cellular populations that contained at least 10 cells."}, "corpus cavernosum [1]": {"tested_on": "corpus cavernosum", "assay": "In vitro corpus cavernosum assay for smooth muscle relaxation (isolated organ chamber, phenylephrine-contracted tissue)", "format": "cell-based, Wistar adult male rats", "description": "The effect of polypeptides on corpus cavernosum contractile activity in vitro was analyzed in corpus cavernosum tissue harvested from Wistar adult male rats. Tissue was vertically positioned in an isolated organ chamber under the conditions described below. Adult male Wistar rats, aged 1.5-2 months and 250-350 g in weight were sacrificed by cervical dislocation and the penis was removed from the base, yielding about 2 cm of isolated tissue. The penile tissue was dissected under a Zeiss STEMI DV4 stereoscopic magnifying glass. The tunica albuginea, which protects the cavernous and spongious corpuses, was gently removed. The cavernous bodies were removed from their central position, obtaining two fragments of equal length and diameter, which were then transferred to a Tyrode physiological solution properly oxygenated (mix of 95% O2 and 5% CO2), at 37° C. at pH 7.4.\nThe cavernous segments were tied with silk at their distal and proximal extremes and immersed in a Tyrode physiologic solution in the chambers. The distal part was tied to the connecting rod and the proximal portion was connected to the isometric contraction transducer (TRI 201/0-25 g) connected to an analogue/digital interphase Power Lab/4SP Ad instrument, making it possible to store and analyse the registered signals by the use of Chart 5 software. Essentially, the fragments were connected to a analogic tension transducer, which transferred its signal to a Power Lab-Letica interphase, which records, graphs and stores the information generated by the physiologic preparation in force/time (g/min scale).\nPrior to assaying the polypeptides, the isolated corpus cavernosum samples were stabilized as follows. After placing the corpus cavernosum in the isolated organ chamber, a 0.5 g tension at a normal velocity (1:1 proportion) was applied for one hour. During this time the basal tension and oxygenation (10 ml/min) remained constant. After the first 20 minutes, the preparation was washed using Tyrode physiologic solution, the tension was fixed and the procedure was repeated every 20 minutes for a total of 4 times. In the final washing process, in Chart 5 control system, the recording speed was modified from 10× to 1×.\nThe ability of f40/7841 to induce smooth muscle relaxation was assayed in the corpus cavernosum assay described in Example 2 in the presence of 50 μM phenylephrine, a pharmacological agonist of the alpha-adrenergic receptor that induces smooth muscle contraction.\nTo determine the relaxation potential it was necessary to induce first a maximum contractile response (control), in the presence of a drug that activates α-adrenergic receptors, phenylephrine (50 μM). The obtained results of the experimental series are statistically analyzed with a statistical significance of P<0.05, and graphed with GraphPad Prim.V.3.02 software."}, "[2]": {"target": "T1, alpha 7 nicotinic acetylcholine receptor (α7nAch) (Homo sapiens, UniProt P36544)", "T1 construct": "expressed in transfected cells; host or cells: PC12 cells", "T1 sequence (P36544 23-502)": "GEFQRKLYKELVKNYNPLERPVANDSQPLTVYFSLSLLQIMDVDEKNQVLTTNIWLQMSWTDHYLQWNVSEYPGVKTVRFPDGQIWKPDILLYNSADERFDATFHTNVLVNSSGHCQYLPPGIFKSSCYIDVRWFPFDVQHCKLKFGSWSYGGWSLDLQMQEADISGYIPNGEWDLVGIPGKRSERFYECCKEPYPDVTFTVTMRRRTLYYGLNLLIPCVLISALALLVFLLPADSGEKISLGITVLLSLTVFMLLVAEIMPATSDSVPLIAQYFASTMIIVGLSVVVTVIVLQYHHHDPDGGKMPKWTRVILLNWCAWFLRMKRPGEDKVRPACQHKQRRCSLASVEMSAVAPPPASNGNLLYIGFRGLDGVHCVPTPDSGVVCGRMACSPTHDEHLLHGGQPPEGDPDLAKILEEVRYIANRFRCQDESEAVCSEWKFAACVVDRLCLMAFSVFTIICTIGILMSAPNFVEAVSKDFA", "assay": "Whole-cell patch clamp of PC12 cells engineered to express the alpha 7 nicotinic acetylcholine receptor", "format": "cell-based", "description": "The ability of the f40/7841 polypeptide to activate nicotinic acetylcholine receptors (nAChR) was assayed by whole cell patch clamp analysis of PC12 cells that had been engineered to express the alpha 7 nicotinic acetylcholine receptor (α7nAch). PC12 cells were transfected and cultured for 48 hours in an 80% of MEM, solution that contained (mM): 150 NaCl, 5.4 KCl, 2.0 CaCl2, 1.0 MgCl2, 10 glucose and 10 Hepes (7.4), 2 mM, and 10% of fetal bovine serum at 37° C. (Trifaro et al. In vitro Cell Dev. Biol. 1990). The cells were incubated for one hour at 22° C. before starting the experiments. The current changes were detected through a whole-cell patch-clamp system through a Warner PC-501^a amplifier and an inverted Olympus 9° 70 microscope. The membrane potential was adjusted to −60 mV; the current was recorded at intervals of 5 μs and it was filtered at 2 Kh using a computer connected to a recording system through an acquisition card Digidata 9.0 (Axon Instrument, Inc) and the software PC 9 (Axon Instrument, Inc). The stock solution for the assays with the peptides were kept refrigerated at 4° C. and the micropipettes contained an internal solution of: 140 mM NaCl, 5 mM KCl, 2 mM CaCl2, 1.5 mM MgCl2, and 10 mM HEPES, pH 7.4.\nThe purified f40/7841 polypeptide was purified according to the method in Example 1. 0.1 mg of the polypeptide was diluted in 100 μl. of sterile PBS at pH 7.4. […]"}, "corpus cavernosum [3]": {"tested_on": "corpus cavernosum", "assay": "In vitro corpus cavernosum assay for smooth muscle relaxation (isolated organ chamber, phenylephrine-contracted tissue)", "format": "cell-based, Wistar adult male rats", "settings": "phenylephrine 5 μM, atropine 1 μM, polypeptide 1 μgml (FIG. 13)"}},
  "note": "Entries after “also recorded” stand apart in the source; their conditions may differ. Structures can show the parent of a compound that is named as a salt.",
  "data": [
    {"molecule": "O=C(O)CN(CCOCCOCCN(CC(=O)O)CC(=O)O)CC(=O)O", "note": "[EGTA]", "values": [
      {"measurement": "effect on ionophore-induced fluorescence spike", "setting": "C2C12 myoblasts; 10 mM EGTA added after 4-Br-A23187 (FIG. 17)", "result": "abolished"}
    ]},
    {"molecule": "CCCc1nn(C)c2c(=O)[nH]c(-c3cc(S(=O)(=O)N4CCN(C)CC4)ccc3OCC)nc12", "note": "[sildenafil citrate, 1-[4-ethoxy-3-(6,7-dihydro-1-methyl-7-oxo-3-propyl-1H-pyrazolo[4,3-d]pyrimidin-5-yl)phenylsulfonyl]-4-methylpiperazine]", "values": [
      {"measurement": "contractile response after sildenafil citrate alone", "setting": "corpus cavernosum [1]; 1 μM, after 50 μM phenylephrine, over a period of 25-30 minutes (FIG. 1)", "result": "slow decrease of the contractile response"},
      {"measurement": "concentration of sildenafil citrate alone required for a relaxation rate comparable to f40/7841 plus 1 μM sildenafil citrate", "setting": "corpus cavernosum [1]; after 50 μM phenylephrine, typical value", "result": 100, "unit": "µM"}
    ]},
    {"molecule": "CNC[C@H](O)c1cccc(O)c1", "note": "[phenylephrine]", "values": [
      {"measurement": "contractile response of corpus cavernosum", "setting": "corpus cavernosum [1]; phenylephrine 50 μM (FIG. 7, FIG. 9)", "result": "phasic contractile response followed by a steadily maintained tonic response; also recorded: quick phasic contraction"}
    ]},
    {"molecule": "CN1[C@@H]2CC[C@H]1C[C@@H](OC(=O)C(CO)c1ccccc1)C2", "note": "(some centres unmarked) [atropine]", "values": [
      {"measurement": "tonic response to phenylephrine in the presence of atropine", "setting": "corpus cavernosum [1]; atropine 1 uM added after 40 minutes of phenylephrine (FIG. 13, upper tracing)", "result": "gradually reduced over time"}
    ]},
    {"molecule": "CNc1c(Br)cc2oc(C[C@H]3OC4(CC[C@H]3C)O[C@H]([C@H](C)C(=O)c3ccc[nH]3)[C@H](C)C[C@H]4C)nc2c1C(=O)O", "note": "(some centres unmarked) [4-Br-A23187]", "values": [
      {"measurement": "Fluo-3AM fluorescence (calcium) after ionophore", "setting": "C2C12 myoblasts; 4-Br-A23187 5 μM, positive control (FIG. 17)", "result": "sharp spike of fluorescence"}
    ]},
    {"molecule": "C[N+](C)(C)CCOC(N)=O", "note": "[carbachol]", "values": [
      {"measurement": "potassium current", "setting": "[2]; 10 μM carbachol, positive control, membrane potential −60 mV (FIG. 15)", "result": 10, "unit": "pA"}
    ]},
    {"molecule": "f40/7841 (protein, also: blocked N-terminus, not given here) GDSLDPAEFACADDIDQAELLKNNDICLQCEDLHKEGLVFSLCKTNCFSTEYFQHCVKDLEEAKKEPPE", "values": [
      {"measurement": "rapid potassium current", "setting": "[2]; 0.1 μg/ml polypeptide, membrane potential −60 mV (FIG. 16, in the presence of carbachol)", "result": 500, "unit": "pA"},
      {"measurement": "ability to induce relaxation, atropine added prior to phenylephrine", "setting": "corpus cavernosum [1]; 1 μM atropine, then phenylephrine 50 μM, polypeptide 2 μg/ml after twenty minutes (FIG. 14)", "result": "attenuated"},
      {"measurement": "effect on tonic contraction (relaxation)", "setting": "corpus cavernosum [1]; 2 μg/ml added after 20 minutes of 50 μM phenylephrine (FIG. 10)", "result": "rapid decrease in tonic contraction"},
      {"measurement": "relaxation of contracted tissue in the presence of L-NAME (nitric oxide synthase inhibitor)", "setting": "corpus cavernosum [1]; phenylephrine, then L-NAME 10 mM, then polypeptide 0.02, 0.2 or 2 μg/ml (FIG. 11, FIG. 12), listed as f40/7481", "result": "did not induce a decrease in contraction; also recorded: abolished"},
      {"measurement": "contractile response on co-addition with sildenafil citrate, compared to sildenafil citrate alone", "setting": "corpus cavernosum [1]; polypeptide 2 μg/ml plus 1 μM sildenafil citrate, after 50 μM phenylephrine (FIG. 1)", "result": "significant decrease in the contractile response"},
      {"measurement": "ability to induce relaxation in the presence of atropine", "setting": "corpus cavernosum [3]", "result": "attenuated"},
      {"measurement": "calcium flux (intracellular Ca2+, Fluo-3AM fluorescence)", "setting": "C2C12 myoblasts; 1 μM polypeptide and 1.5 mM carbachol, monitored for 2 minutes (FIG. 17)", "result": "did not induce calcium flux"}
    ]}
  ]
}
